{
  "source": "patent US8937091B2",
  "about": "(Japan Science and Technology Agency, priority 2009, dated 2015)",
  "key": {"[1]": {"tested_on": "IICR (IP3 induced calcium release) in CHO cells", "experiment": "Assay of IICR (IP3 induced calcium release)-inhibiting action", "assay_type": "cell-based, Chinese hamster", "details": "Cricetulus griseus, CHO, CHO cells, 10 μM ATP, read-out: IICR level (percentage of inhibition); for inhibition at 10 µM: test compound 10 μmol; for inhibition at 30 µM: test compound 30 μmol; for inhibition at 100 µM: test compound 100 μmol", "outline": "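CHO cell medium replaced with calcium-containing BSS; compound added 1 min later, then 10 μM ATP after a further 2 min. Percent inhibition of the ATP-evoked rise in intracellular calcium determined at each compound concentration.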"}, "[2]": {"tested_on": "SOCE (store operated calcium entry) in CHO cells", "experiment": "Assay of SOCE (store operated calcium entry)-inhibiting action", "assay_type": "cell-based, Chinese hamster", "details": "Cricetulus griseus, CHO, CHO cells, thapsigargin, read-out: SOCE level (percentage of inhibition); for inhibition at 10 µM: test compound 10 μmol; for inhibition at 30 µM: test compound 30 μmol; for inhibition at 100 µM: test compound 100 μmol", "outline": "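CHO cells in calcium-free BSS received compound, then 1 μM thapsigargin 2 min later to deplete stores; after 9 min, 2 mM calcium chloride (final) added. Percent inhibition of the rise in intracellular calcium determined at various compound concentrations.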"}},
  "data": [
    {"smiles": "CCCCN(CCO)CCC(=O)c1cccnc1", "note": "[Example 180, 2-(N-2-hydroxyethylbutyl)aminoethyl-3-pyridylketone]", "values": [
      {"measurement": "inhibition at 10 µM", "setting": "[1]", "result": 0, "unit": "%"},
      {"measurement": "inhibition at 30 µM", "setting": "[1]", "result": 0, "unit": "%"},
      {"measurement": "inhibition at 100 µM", "setting": "[1]", "result": 50, "unit": "%"},
      {"measurement": "inhibition at 10 µM", "setting": "[2]", "result": 0, "unit": "%"},
      {"measurement": "inhibition at 30 µM", "setting": "[2]", "result": 0, "unit": "%"},
      {"measurement": "inhibition at 100 µM", "setting": "[2]", "result": 0, "unit": "%"}
    ]},
    {"smiles": "CC(CN(CCO)C(C)C)C(=O)c1ccccc1F", "note": "(stereo not drawn) [Example 181, 1-methyl-2-(N-hydroxyethylisopropyl)aminoethyl-2-fluorophenylketone]", "values": [
      {"measurement": "inhibition at 10 µM", "setting": "[1]", "result": 0, "unit": "%"},
      {"measurement": "inhibition at 30 µM", "setting": "[1]", "result": 10, "unit": "%"},
      {"measurement": "inhibition at 100 µM", "setting": "[1]", "result": 20, "unit": "%"},
      {"measurement": "inhibition at 10 µM", "setting": "[2]", "result": 20, "unit": "%"},
      {"measurement": "inhibition at 30 µM", "setting": "[2]", "result": 40, "unit": "%"},
      {"measurement": "inhibition at 100 µM", "setting": "[2]", "result": 80, "unit": "%"}
    ]},
    {"smiles": "CC(CN(Cc1ccccc1)C(C)C)C(=O)c1ccccc1F", "note": "(stereo not drawn) [Example 182, 1-methyl-2-(N-benzylisopropyl)aminoethyl-2-fluorophenylketone]", "values": [
      {"measurement": "inhibition at 10 µM", "setting": "[1]", "result": 0, "unit": "%"},
      {"measurement": "inhibition at 30 µM", "setting": "[1]", "result": 0, "unit": "%"},
      {"measurement": "inhibition at 100 µM", "setting": "[1]", "result": 50, "unit": "%"},
      {"measurement": "inhibition at 10 µM", "setting": "[2]", "result": 10, "unit": "%"},
      {"measurement": "inhibition at 30 µM", "setting": "[2]", "result": 50, "unit": "%"},
      {"measurement": "inhibition at 100 µM", "setting": "[2]", "result": 80, "unit": "%"}
    ]},
    {"smiles": "CC(C)N(CCC(=O)c1cccs1)Cc1ccccc1", "note": "[Example 183, 2-(N-isopropylbenzyl)aminoethyl-2-thiophenylketone]", "values": [
      {"measurement": "inhibition at 10 µM", "setting": "[1]", "result": 0, "unit": "%"},
      {"measurement": "inhibition at 30 µM", "setting": "[1]", "result": 0, "unit": "%"},
      {"measurement": "inhibition at 100 µM", "setting": "[1]", "result": 50, "unit": "%"},
      {"measurement": "inhibition at 10 µM", "setting": "[2]", "result": 0, "unit": "%"},
      {"measurement": "inhibition at 30 µM", "setting": "[2]", "result": 0, "unit": "%"},
      {"measurement": "inhibition at 100 µM", "setting": "[2]", "result": 20, "unit": "%"}
    ]},
    {"smiles": "O=C(CCN(CCO)Cc1ccccc1)c1ccsc1", "note": "[Example 184, 2-(N-2-hydroxyethylbenzyl)aminoethyl-3-thiophenylketone]", "values": [
      {"measurement": "inhibition at 10 µM", "setting": "[1]", "result": 30, "unit": "%"},
      {"measurement": "inhibition at 30 µM", "setting": "[1]", "result": 50, "unit": "%"},
      {"measurement": "inhibition at 100 µM", "setting": "[1]", "result": 60, "unit": "%"},
      {"measurement": "inhibition at 10 µM", "setting": "[2]", "result": 0, "unit": "%"},
      {"measurement": "inhibition at 30 µM", "setting": "[2]", "result": 0, "unit": "%"},
      {"measurement": "inhibition at 100 µM", "setting": "[2]", "result": 0, "unit": "%"}
    ]},
    {"smiles": "O=C(CCN(c1ccccc1)c1ccccc1)c1ccccn1", "note": "[Example 185, 2-(N,N-diphenyl)aminoethyl-2-pyridylketone]", "values": [
      {"measurement": "inhibition at 10 µM", "setting": "[1]", "result": 0, "unit": "%"},
      {"measurement": "inhibition at 30 µM", "setting": "[1]", "result": 10, "unit": "%"},
      {"measurement": "inhibition at 100 µM", "setting": "[1]", "result": 20, "unit": "%"},
      {"measurement": "inhibition at 10 µM", "setting": "[2]", "result": 0, "unit": "%"},
      {"measurement": "inhibition at 30 µM", "setting": "[2]", "result": 10, "unit": "%"},
      {"measurement": "inhibition at 100 µM", "setting": "[2]", "result": 20, "unit": "%"}
    ]},
    {"smiles": "CCc1nccnc1C(=O)CCN(Cc1ccccc1)C(C)C", "note": "[Example 186, 2-(N-isopropylbenzyl)aminoethyl-2-(3-ethyl)-pyrazylketone]", "values": [
      {"measurement": "inhibition at 10 µM", "setting": "[1]", "result": 70, "unit": "%"},
      {"measurement": "inhibition at 30 µM", "setting": "[1]", "result": 90, "unit": "%"},
      {"measurement": "inhibition at 100 µM", "setting": "[1]", "result": 100, "unit": "%"},
      {"measurement": "inhibition at 10 µM", "setting": "[2]", "result": 0, "unit": "%"},
      {"measurement": "inhibition at 30 µM", "setting": "[2]", "result": 0, "unit": "%"},
      {"measurement": "inhibition at 100 µM", "setting": "[2]", "result": 10, "unit": "%"}
    ]},
    {"smiles": "CCc1nccnc1C(=O)CCN(Cc1ccccc1)C(C)(C)C", "note": "[Example 188, 2-(N-t-butylbenzyl)aminoethyl-2-(3-ethyl)-pyrazylketone]", "values": [
      {"measurement": "inhibition at 10 µM", "setting": "[1]", "result": 50, "unit": "%"},
      {"measurement": "inhibition at 30 µM", "setting": "[1]", "result": 90, "unit": "%"},
      {"measurement": "inhibition at 100 µM", "setting": "[1]", "result": 100, "unit": "%"},
      {"measurement": "inhibition at 10 µM", "setting": "[2]", "result": 0, "unit": "%"},
      {"measurement": "inhibition at 30 µM", "setting": "[2]", "result": 0, "unit": "%"},
      {"measurement": "inhibition at 100 µM", "setting": "[2]", "result": 20, "unit": "%"}
    ]},
    {"smiles": "O=C(CCNC12CC3CC(CC(C3)C1)C2)c1ccccc1", "note": "[Example 189, 2-N-adamantaneaminoethylphenylketone]", "values": [
      {"measurement": "inhibition at 10 µM", "setting": "[1]", "result": 0, "unit": "%"},
      {"measurement": "inhibition at 30 µM", "setting": "[1]", "result": 0, "unit": "%"},
      {"measurement": "inhibition at 100 µM", "setting": "[1]", "result": 0, "unit": "%"},
      {"measurement": "inhibition at 10 µM", "setting": "[2]", "result": 0, "unit": "%"},
      {"measurement": "inhibition at 30 µM", "setting": "[2]", "result": 10, "unit": "%"},
      {"measurement": "inhibition at 100 µM", "setting": "[2]", "result": 10, "unit": "%"}
    ]},
    {"smiles": "Cc1ccc(C(=O)CCNC23CC4CC(CC(C4)C2)C3)o1", "note": "[Example 190, 2-N-adamantane-aminoethyl-2-methylfurylketone]", "values": [
      {"measurement": "inhibition at 10 µM", "setting": "[1]", "result": 0, "unit": "%"},
      {"measurement": "inhibition at 30 µM", "setting": "[1]", "result": 10, "unit": "%"},
      {"measurement": "inhibition at 100 µM", "setting": "[1]", "result": 50, "unit": "%"},
      {"measurement": "inhibition at 10 µM", "setting": "[2]", "result": 0, "unit": "%"},
      {"measurement": "inhibition at 30 µM", "setting": "[2]", "result": 10, "unit": "%"},
      {"measurement": "inhibition at 100 µM", "setting": "[2]", "result": 50, "unit": "%"}
    ]},
    {"smiles": "CC(CNC12CC3CC(CC(C3)C1)C2)C(=O)c1ccc(F)cc1", "note": "(stereo not drawn) [Example 191]", "values": [
      {"measurement": "inhibition at 10 µM", "setting": "[1]", "result": 0, "unit": "%"},
      {"measurement": "inhibition at 30 µM", "setting": "[1]", "result": 0, "unit": "%"},
      {"measurement": "inhibition at 100 µM", "setting": "[1]", "result": 0, "unit": "%"},
      {"measurement": "inhibition at 10 µM", "setting": "[2]", "result": 0, "unit": "%"},
      {"measurement": "inhibition at 30 µM", "setting": "[2]", "result": 0, "unit": "%"},
      {"measurement": "inhibition at 100 µM", "setting": "[2]", "result": 0, "unit": "%"}
    ]},
    {"smiles": "O=C(CCCCl)c1ccncc1", "note": "[Example 192, 3-chloropropyl-4-pyridylketone]", "values": [
      {"measurement": "inhibition at 10 µM", "setting": "[1]", "result": 0, "unit": "%"},
      {"measurement": "inhibition at 30 µM", "setting": "[1]", "result": 0, "unit": "%"},
      {"measurement": "inhibition at 100 µM", "setting": "[1]", "result": 0, "unit": "%"},
      {"measurement": "inhibition at 10 µM", "setting": "[2]", "result": 0, "unit": "%"},
      {"measurement": "inhibition at 30 µM", "setting": "[2]", "result": 10, "unit": "%"},
      {"measurement": "inhibition at 100 µM", "setting": "[2]", "result": 20, "unit": "%"}
    ]}
  ]
}
